Data taken from publication PMC8286840, “Identifying SARS-CoV-2 antiviral compounds by screening for small molecule inhibitors of Nsp3 papain-like protease” (Biochemical Journal, 2021).
Where a name gives a salt, the structure may show the parent alone. Read-outs that look alike come from different tables or passages of the source.

Experiments:
[1] = target: T1, SARS-CoV-2 PLpro (nsp3 1564–1878) (Severe acute respiratory syndrome coronavirus 2, UniProt P0DTD1); test: biochemical; design: FRET-quenched peptide (Pro3) cleavage by PLpro, 10 min pre-incubation, slope over 20 min, normalised to no-compound control; conditions: read-out: % of control remaining
Procedure: The plates were organized with columns 3–22 containing the compounds; the remaining columns were used for reaction controls including substrate only and substrate with enzyme but no compound (Figure 3Aii). The PLpro enzyme was pre-incubated with the compounds for 10 min, and then the reaction was initiated by the addition of substrate. […] We incubated the inhibitors with PLpro before the enzymatic reaction so that the slow-binding inhibitors will not be missed out [21]. […] Fluorescence was read on a Spark multimode microplate reader (Tecan) with an excitation wavelength at 330 nm and emission wavelength at 420 nm. […] An amount of 5 µl of the enzyme was pre-incubated with compounds for 10 min before the addition of 15 µl substrate. Fluorescence was monitored at 2 min for 20 min with 3 min intervals giving a total of seven readings.

[2] = target: T1, SARS-CoV-2 PLpro (nsp3 1564–1878); test: biochemical; design: FRET-quenched peptide (Pro3) cleavage by PLpro, 10 min pre-incubation, slope over 20 min, normalised to no-compound control; conditions: read-out: % of control remaining; remark: listed apart in the source

CCN1CCC[C@H]1CNC(=O)c1c(OC)ccc(Br)c1OC [Remoxipride]
remaining activity at 1.25 µM ([1]; Well no.=1819, low concentration screen): 100%
remaining activity at 3.75 µM ([2]; Well no.=1819, high concentration screen): 99.4%

O=c1ccc2ccc(O)c(O)c2o1 [Daphnetin]
remaining activity at 1.25 µM ([1]; Well no.=405, low concentration screen): 102%
remaining activity at 3.75 µM ([2]; Well no.=405, high concentration screen): 101%

C#CCCCCCCCCCCCCCCCC(=O)O [17-Octadecynoic acid]
remaining activity at 1.25 µM ([1]; Well no.=4351, low concentration screen): 105%
remaining activity at 3.75 µM ([2]; Well no.=4351, high concentration screen): 104%

CC(C)C(=O)c1c(C(C)C)nn2ccccc12 [Ibudilast]
remaining activity at 1.25 µM ([1]; Well no.=572, low concentration screen): 98.8%
remaining activity at 1.25 µM ([1]; Well no.=1581, low concentration screen): 89.2%
remaining activity at 3.75 µM ([2]; Well no.=572, high concentration screen): 96.9%
remaining activity at 3.75 µM ([2]; Well no.=1581, high concentration screen): 90%

Oc1ccc(-c2nc(-c3ccc(F)cc3)c(-c3ccncc3)[nH]2)cc1 [SB 202190 - 4-[4-(4-Fluorophenyl)-5-(4-pyridinyl)-1H-imidazol-2-yl]phenol]
remaining activity at 1.25 µM ([1]; Well no.=2380, low concentration screen): 96.6%
remaining activity at 3.75 µM ([2]; Well no.=2380, high concentration screen): 94.8%

COc1ccc(-c2ccc3c(N4CCOC[C@@H]4C)nc(N4CCOC[C@@H]4C)nc3n2)cc1CO [AZD8055]
remaining activity at 1.25 µM ([1]; Well no.=5293, low concentration screen): 99.1%
remaining activity at 3.75 µM ([2]; Well no.=5293, high concentration screen): 97.4%

CC#CC(=O)Nc1cc2c(Nc3ccc(F)c(Cl)c3)ncnc2cn1 [EGFR/ErbB-2/ErbB-4 Inhibitor]
remaining activity at 1.25 µM ([1]; Well no.=2405, low concentration screen): 102%
remaining activity at 3.75 µM ([2]; Well no.=2405, high concentration screen): 105%

OC[C@H]1OC(O)[C@@H](O)[C@@H](O)[C@@H]1O (stereo partly drawn) [D-Mannose]
remaining activity at 1.25 µM ([1]; Well no.=7407, low concentration screen): 103%
remaining activity at 3.75 µM ([2]; Well no.=7407, high concentration screen): 102%

CCN(N=O)c1ccc(O)c(O)c1 [ET-3,4-dephostatin]
remaining activity at 1.25 µM ([1]; Well no.=598, low concentration screen): 100%
remaining activity at 3.75 µM ([2]; Well no.=598, high concentration screen): 102%

CCn1c(-c2nonc2N)nc2c(C#CC(C)(C)O)ncc(OC[C@H]3CCCNC3)c21 [GSK690693]
remaining activity at 1.25 µM ([1]; Well no.=3041, low concentration screen): 97.7%
remaining activity at 3.75 µM ([2]; Well no.=3041, high concentration screen): 94.4%

CCCCCCCCCCCCCCCC(=O)OC/C=C(C)/C=C/C=C(C)/C=C/C1=C(C)CCCC1(C)C [Retinyl palmitate]
remaining activity at 1.25 µM ([1]; Well no.=4134, low concentration screen): 96.7%
remaining activity at 3.75 µM ([2]; Well no.=4134, high concentration screen): 97.6%

CC(=O)Oc1cc2c(s1)CCN(C(C(=O)C1CC1)c1ccccc1F)C2 (stereo not drawn) [Prasugrel (Effient)]
remaining activity at 1.25 µM ([1]; Well no.=4765, low concentration screen): 103%
remaining activity at 3.75 µM ([2]; Well no.=4765, high concentration screen): 104%

NCC[C@H](O)C(=O)N[C@@H]1C[C@H](N)[C@@H](O[C@H]2O[C@H](CN)[C@@H](O)[C@H](O)[C@H]2O)[C@H](O)[C@H]1O[C@H]1O[C@H](CO)[C@@H](O)[C@H](N)[C@H]1O [Amikacin hydrate]
remaining activity at 1.25 µM ([1]; Well no.=5355, low concentration screen): 97.3%
remaining activity at 3.75 µM ([2]; Well no.=5355, high concentration screen): 101%

CCNC(=O)CCC/C=C\C[C@@H]1[C@@H](/C=C/[C@@H](O)CCc2ccccc2)[C@H](O)C[C@@H]1O [Bimatoprost]
remaining activity at 1.25 µM ([1]; Well no.=5237, low concentration screen): 100%
remaining activity at 3.75 µM ([2]; Well no.=5237, high concentration screen): 101%

CCCCC(=O)N(Cc1ccc(-c2ccccc2-c2nnn[nH]2)cc1)[C@H](C(=O)O)C(C)C [Valsartan]
remaining activity at 1.25 µM ([1]; Well no.=7542, low concentration screen): 94.7%
remaining activity at 1.25 µM ([1]; Well no.=8247, low concentration screen): 105%
remaining activity at 3.75 µM ([2]; Well no.=7542, high concentration screen): 98%
remaining activity at 3.75 µM ([2]; Well no.=8247, high concentration screen): 99.1%

Cc1[nH]c2ccc(O)cc2c1CCN [2-Methyl-5-hydroxytryptamine maleate]
remaining activity at 1.25 µM ([1]; Well no.=847, low concentration screen): 102%
remaining activity at 3.75 µM ([2]; Well no.=847, high concentration screen): 102%

Cc1cn([C@@H]2O[C@H](CO)[C@@H](N=[N+]=[N-])[C@H]2O)c(=O)nc1N [3'-Azido-3'-deoxy-5-methylcytidine]
remaining activity at 1.25 µM ([1]; Well no.=7804, low concentration screen): 98.2%
remaining activity at 3.75 µM ([2]; Well no.=7804, high concentration screen): 97.5%

NCCCC(N)(C(=O)O)C(F)F (stereo not drawn) [Eflornithine hydrochloride hydrate]
remaining activity at 1.25 µM ([1]; Well no.=8636, low concentration screen): 104%
remaining activity at 3.75 µM ([2]; Well no.=8636, high concentration screen): 95.7%

CN(C)CCOc1ccc(-c2nc(-c3ccncc3)c(-c3ccc4c(c3)CC/C4=N\O)[nH]2)cc1 [SB590885]
remaining activity at 1.25 µM ([1]; Well no.=2749, low concentration screen): 101%
remaining activity at 3.75 µM ([2]; Well no.=2749, high concentration screen): 99.9%

CCN(CC)CCCCNc1ncc2cc(-c3cc(OC)cc(OC)c3)c(NC(=O)NC(C)(C)C)nc2n1 [PD173074]
remaining activity at 1.25 µM ([1]; Well no.=4767, low concentration screen): 104%
remaining activity at 3.75 µM ([2]; Well no.=4767, high concentration screen): 108%

C[C@@H](NC(=O)/C(C#N)=C/c1ccc(O)c(O)c1)c1ccccc1 [Tyrphostin AG 527]
remaining activity at 1.25 µM ([1]; Well no.=1431, low concentration screen): 97.8%
remaining activity at 3.75 µM ([2]; Well no.=1431, high concentration screen): 100%

CCOP(=O)(OCC)C(=Cc1cc(C(C)(C)C)c(O)c(C(C)(C)C)c1)P(=O)(OCC)OCC [SR 12813]
remaining activity at 1.25 µM [1]: 96.5%
remaining activity at 3.75 µM [2]: 103%

O=C(O)Cc1c[nH]c2ccc(O)cc12 [5-Hydroxyindolacetic acid]
remaining activity at 1.25 µM ([1]; Well no.=758, low concentration screen): 91.7%
remaining activity at 3.75 µM ([2]; Well no.=758, high concentration screen): 92.8%

CCCC(C)(COC(N)=O)COC(=O)NC(C)C (stereo not drawn) [Carisoprodol]
remaining activity at 1.25 µM ([1]; Well no.=380, low concentration screen): 95.8%
remaining activity at 3.75 µM ([2]; Well no.=380, high concentration screen): 95.3%

CN(C)CCCn1cc(C2=C(c3c[nH]c4ccccc34)C(=O)NC2=O)c2ccccc21 [GF 109203X - 2-[1-(3-Dimethylaminopropyl)indol-3-yl]-3-(indol-3-yl) maleimide]
remaining activity at 1.25 µM ([1]; Well no.=2340, low concentration screen): 103%
remaining activity at 3.75 µM ([2]; Well no.=2340, high concentration screen): 106%

COc1c2occc2cc2ccc(=O)oc12 [Xanthotoxin]
remaining activity at 1.25 µM ([1]; Well no.=3459, low concentration screen): 104%
remaining activity at 3.75 µM ([2]; Well no.=3459, high concentration screen): 106%

CC(C)(C)NC[C@H](O)COc1nsnc1N1CCOCC1 [(S)-Timolol (Maleate)]
remaining activity at 1.25 µM ([1]; Well no.=7667, low concentration screen): 92.8%
remaining activity at 3.75 µM ([2]; Well no.=7667, high concentration screen): 94.8%

CC(=O)N[C@@H](CC(C)C)C(=O)N[C@@H](CC(C)C)C(=O)N[C@H](C=O)CCCN=C(N)N [Leupeptin Hemisulfate]
remaining activity at 1.25 µM ([1]; Well no.=8716, low concentration screen): 92%
remaining activity at 3.75 µM ([2]; Well no.=8716, high concentration screen): 91%

Cc1ccccc1N(C)C(=O)c1ccc([S+]([O-])c2nccs2)c([N+](=O)[O-])c1 (stereo not drawn) [SB-268262]
remaining activity at 1.25 µM ([1]; Well no.=5777, low concentration screen): 99.5%
remaining activity at 3.75 µM ([2]; Well no.=5777, high concentration screen): 100%

CCOc1nc(NC(=O)Cc2cc(OC)ccc2OC)cc(N)c1C#N [JNK Inhibitor VIII]
remaining activity at 1.25 µM ([1]; Well no.=2550, low concentration screen): 99.5%
remaining activity at 3.75 µM ([2]; Well no.=2550, high concentration screen): 100%

C[C@@H]1C(=O)NC2=Nc3cccc(Cl)c3CN21 [Quazinone]
remaining activity at 1.25 µM ([1]; Well no.=1221, low concentration screen): 96.6%
remaining activity at 3.75 µM ([2]; Well no.=1221, high concentration screen): 95.5%

COc1ccccc1OCC(O)CN1CCN(CC(=O)Nc2c(C)cccc2C)CC1 (stereo not drawn) [Ranolazine dihydrochloride]
remaining activity at 1.25 µM ([1]; Well no.=1254, low concentration screen): 108%
remaining activity at 3.75 µM ([2]; Well no.=1254, high concentration screen): 106%

Nc1ncnc2c1ncn2[C@H]1CC[C@@H](CO)O1 [2',3'-Dideoxyadenosine]
remaining activity at 1.25 µM ([1]; Well no.=7998, low concentration screen): 97.5%
remaining activity at 3.75 µM ([2]; Well no.=7998, high concentration screen): 94.3%

C[C@H]1[C@H](C)CC[C@]2(C(=O)O)CC[C@]3(C)C(=CC[C@@H]4[C@@]5(C)C[C@@H](O)[C@H](O)[C@@](C)(CO)[C@@H]5[C@H](O)C[C@]43C)[C@H]12 [Madecassic acid]
remaining activity at 1.25 µM ([1]; Well no.=3657, low concentration screen): 104%
remaining activity at 3.75 µM ([2]; Well no.=3657, high concentration screen): 104%
